Measurements: ChEMBL document CHEMBL1909046, “DrugMatrix in vitro pharmacology data”

Tests used:
Cytochrome P450 2A6 = target: T1, Cytochrome P450 2A6 (Homo sapiens, UniProt P11509); conditions: bti-tn-5b1-4; note: in other assays of this panel Not Active means under 50% inhibition at 10 µM
T1 sequence (P11509 whole entry): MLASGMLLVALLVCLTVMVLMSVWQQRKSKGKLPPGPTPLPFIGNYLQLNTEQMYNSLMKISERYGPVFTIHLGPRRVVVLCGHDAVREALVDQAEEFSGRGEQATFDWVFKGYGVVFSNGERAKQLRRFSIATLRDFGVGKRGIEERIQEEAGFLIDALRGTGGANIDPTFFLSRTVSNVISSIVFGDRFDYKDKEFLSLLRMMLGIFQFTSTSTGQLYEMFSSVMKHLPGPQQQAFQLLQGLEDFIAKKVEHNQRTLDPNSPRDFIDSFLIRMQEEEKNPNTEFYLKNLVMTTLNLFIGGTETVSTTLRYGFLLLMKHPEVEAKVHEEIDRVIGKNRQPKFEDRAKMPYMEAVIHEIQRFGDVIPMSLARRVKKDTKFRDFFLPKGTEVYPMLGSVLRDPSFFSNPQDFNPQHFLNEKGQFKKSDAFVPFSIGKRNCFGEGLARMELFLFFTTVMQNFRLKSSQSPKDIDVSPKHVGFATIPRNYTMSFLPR

D(3) dopamine receptor = D(3) dopamine receptor (Homo sapiens, UniProt P35462); assay: DRUGMATRIX: Dopamine D3 radioligand binding (ligand: [3H] Spiperone); assay type: cell membranes, CHO, Membrane
Sequence of D(3) dopamine receptor (P35462 whole entry): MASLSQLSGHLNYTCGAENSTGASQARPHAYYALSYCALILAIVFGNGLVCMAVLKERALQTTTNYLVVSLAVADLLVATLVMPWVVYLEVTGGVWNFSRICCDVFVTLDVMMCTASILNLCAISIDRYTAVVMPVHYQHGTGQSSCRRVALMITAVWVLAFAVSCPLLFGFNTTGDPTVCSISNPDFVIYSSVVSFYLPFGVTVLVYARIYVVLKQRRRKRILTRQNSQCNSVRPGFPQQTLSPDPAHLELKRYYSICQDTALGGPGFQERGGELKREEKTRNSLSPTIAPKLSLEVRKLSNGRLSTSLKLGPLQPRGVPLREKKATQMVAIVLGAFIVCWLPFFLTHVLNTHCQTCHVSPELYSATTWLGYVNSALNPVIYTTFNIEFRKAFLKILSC

[1] = target: Voltage-gated inwardly rectifying potassium channel KCNH2 (Homo sapiens, UniProt Q12809); conditions: hek293; note: in other assays of this panel Not Active means under 50% inhibition at 10 µM
Sequence of Voltage-gated inwardly rectifying potassium channel KCNH2 (Q12809 whole entry): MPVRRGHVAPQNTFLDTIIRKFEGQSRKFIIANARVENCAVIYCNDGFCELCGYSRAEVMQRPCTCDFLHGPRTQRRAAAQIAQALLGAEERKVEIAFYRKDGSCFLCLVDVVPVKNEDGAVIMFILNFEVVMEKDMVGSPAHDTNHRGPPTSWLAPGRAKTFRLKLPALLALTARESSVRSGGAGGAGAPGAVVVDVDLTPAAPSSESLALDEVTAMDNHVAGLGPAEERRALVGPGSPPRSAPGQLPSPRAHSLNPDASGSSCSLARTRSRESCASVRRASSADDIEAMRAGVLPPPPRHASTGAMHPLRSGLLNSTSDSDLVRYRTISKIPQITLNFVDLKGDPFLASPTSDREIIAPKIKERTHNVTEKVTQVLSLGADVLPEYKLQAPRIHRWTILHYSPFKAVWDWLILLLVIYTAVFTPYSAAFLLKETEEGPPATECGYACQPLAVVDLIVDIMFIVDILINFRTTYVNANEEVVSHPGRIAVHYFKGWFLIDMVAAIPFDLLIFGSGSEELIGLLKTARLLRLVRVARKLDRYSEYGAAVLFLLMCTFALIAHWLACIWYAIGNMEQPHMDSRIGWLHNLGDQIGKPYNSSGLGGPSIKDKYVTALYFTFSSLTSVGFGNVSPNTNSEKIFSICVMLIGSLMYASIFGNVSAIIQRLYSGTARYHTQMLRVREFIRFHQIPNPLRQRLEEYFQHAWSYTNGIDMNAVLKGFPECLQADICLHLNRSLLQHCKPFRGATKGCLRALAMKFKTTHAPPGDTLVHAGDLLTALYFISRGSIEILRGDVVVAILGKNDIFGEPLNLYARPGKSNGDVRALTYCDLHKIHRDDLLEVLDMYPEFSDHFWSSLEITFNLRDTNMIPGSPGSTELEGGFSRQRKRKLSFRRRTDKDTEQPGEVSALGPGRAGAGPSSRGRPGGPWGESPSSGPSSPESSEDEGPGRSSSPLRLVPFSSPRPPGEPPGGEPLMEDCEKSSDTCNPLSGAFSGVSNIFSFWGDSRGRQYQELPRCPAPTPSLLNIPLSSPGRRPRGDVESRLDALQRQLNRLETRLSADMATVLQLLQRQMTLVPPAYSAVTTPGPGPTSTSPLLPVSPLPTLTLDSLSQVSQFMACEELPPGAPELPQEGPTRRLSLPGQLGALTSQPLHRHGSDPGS

[2] = target: Kappa-type opioid receptor (Homo sapiens, UniProt P41145); assay: DRUGMATRIX: Opiate kappa (OP2, KOP) radioligand binding (ligand: [3H] Diprenorphine); assay type: cell membranes, HEK293, Membrane; conditions: hek293; Not Active = under 50% inhibition at 10 µM
Sequence of Kappa-type opioid receptor (P41145 whole entry): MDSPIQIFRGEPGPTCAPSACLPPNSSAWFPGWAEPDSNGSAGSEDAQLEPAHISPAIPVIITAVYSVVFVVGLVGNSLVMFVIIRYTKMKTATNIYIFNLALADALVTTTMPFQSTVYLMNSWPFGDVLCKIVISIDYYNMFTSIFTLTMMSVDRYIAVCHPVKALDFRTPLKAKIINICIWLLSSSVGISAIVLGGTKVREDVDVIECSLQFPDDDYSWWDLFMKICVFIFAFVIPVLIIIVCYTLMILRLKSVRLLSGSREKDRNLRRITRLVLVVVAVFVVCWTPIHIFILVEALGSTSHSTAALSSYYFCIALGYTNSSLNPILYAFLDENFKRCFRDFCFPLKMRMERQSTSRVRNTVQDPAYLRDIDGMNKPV

Estrogen receptor beta = Estrogen receptor beta (Homo sapiens, UniProt Q92731); conditions: sf9; note: in other assays of this panel Not Active means under 50% inhibition at 10 µM
Sequence of Estrogen receptor beta (Q92731 whole entry): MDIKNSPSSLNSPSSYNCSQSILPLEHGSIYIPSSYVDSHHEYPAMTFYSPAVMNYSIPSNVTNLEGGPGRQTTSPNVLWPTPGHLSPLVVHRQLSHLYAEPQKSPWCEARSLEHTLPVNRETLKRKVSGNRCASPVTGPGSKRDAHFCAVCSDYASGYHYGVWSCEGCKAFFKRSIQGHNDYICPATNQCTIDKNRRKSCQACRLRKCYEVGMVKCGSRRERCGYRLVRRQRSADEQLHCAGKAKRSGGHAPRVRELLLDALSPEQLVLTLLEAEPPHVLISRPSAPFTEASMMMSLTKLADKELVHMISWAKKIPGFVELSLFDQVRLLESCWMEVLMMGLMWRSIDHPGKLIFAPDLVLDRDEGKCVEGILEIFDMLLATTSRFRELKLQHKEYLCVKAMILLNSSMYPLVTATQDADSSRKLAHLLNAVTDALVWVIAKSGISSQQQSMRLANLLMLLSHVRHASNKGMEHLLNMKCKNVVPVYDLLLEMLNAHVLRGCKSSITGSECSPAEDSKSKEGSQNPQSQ

Cytochrome P450 2C9 = Cytochrome P450 2C9 (Homo sapiens, UniProt P11712); conditions: bti-tn-5b1-4; note: in other assays of this panel Not Active means under 50% inhibition at 10 µM
Sequence of Cytochrome P450 2C9 (P11712 whole entry): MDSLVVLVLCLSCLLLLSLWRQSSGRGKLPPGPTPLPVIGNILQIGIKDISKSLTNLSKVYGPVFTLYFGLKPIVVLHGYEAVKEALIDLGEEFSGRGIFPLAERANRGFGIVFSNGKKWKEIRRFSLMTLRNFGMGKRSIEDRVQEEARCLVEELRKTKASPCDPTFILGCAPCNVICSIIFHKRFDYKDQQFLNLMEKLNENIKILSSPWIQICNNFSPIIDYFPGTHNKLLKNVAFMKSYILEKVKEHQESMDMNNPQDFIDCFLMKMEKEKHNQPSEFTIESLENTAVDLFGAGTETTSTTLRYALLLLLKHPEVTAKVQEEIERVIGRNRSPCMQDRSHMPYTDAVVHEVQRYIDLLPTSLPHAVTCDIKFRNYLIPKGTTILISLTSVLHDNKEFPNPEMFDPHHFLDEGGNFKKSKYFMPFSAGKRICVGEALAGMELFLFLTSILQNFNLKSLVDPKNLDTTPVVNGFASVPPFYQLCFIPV

Cytochrome P450 2D6 = Cytochrome P450 2D6 (Homo sapiens, UniProt P10635); conditions: bti-tn-5b1-4; note: in other assays of this panel Not Active means under 50% inhibition at 10 µM
Sequence of Cytochrome P450 2D6 (P10635 whole entry): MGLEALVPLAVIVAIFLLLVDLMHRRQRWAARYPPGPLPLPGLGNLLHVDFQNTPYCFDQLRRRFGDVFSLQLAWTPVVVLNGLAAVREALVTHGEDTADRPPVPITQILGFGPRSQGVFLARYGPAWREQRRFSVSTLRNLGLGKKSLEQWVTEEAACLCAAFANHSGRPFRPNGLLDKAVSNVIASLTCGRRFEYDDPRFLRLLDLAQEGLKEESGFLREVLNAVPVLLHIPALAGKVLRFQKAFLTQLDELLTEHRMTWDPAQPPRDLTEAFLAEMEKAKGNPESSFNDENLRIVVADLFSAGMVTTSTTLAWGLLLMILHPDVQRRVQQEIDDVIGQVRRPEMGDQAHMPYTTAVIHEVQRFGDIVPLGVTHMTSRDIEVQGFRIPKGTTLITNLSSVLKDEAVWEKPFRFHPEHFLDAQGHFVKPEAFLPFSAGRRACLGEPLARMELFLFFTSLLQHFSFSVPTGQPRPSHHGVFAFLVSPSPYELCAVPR

Row | Compound | IC50 (Cytochrome P450 2A6) | Ki (Cytochrome P450 2A6) | IC50 (D(3) dopamine receptor; cho) | IC50 [1] | Ki [1] | IC50 [2] | IC50 (Estrogen receptor beta) | IC50 (Cytochrome P450 2C9) | Ki (Cytochrome P450 2C9) | IC50 (Cytochrome P450 2D6) | Ki (Cytochrome P450 2D6) | IC50 (D(3) dopamine receptor; read-out: IC50) [µM] | Ki (D(3) dopamine receptor; read-out: Ki) [µM] | Ki (D(3) dopamine receptor; cho) | Ki (Estrogen receptor beta)
1 | Nc1nc(N)c2nc(-c3ccccc3)c(N)nc2n1 | Not Active | Not Active | Not Active | Not Active | Not Active | Not Active | Not Active | – | – | – | – | – | – | – | –
2 | Cc1cc2c(s1)Nc1ccccc1N=C2N1CCN(C)CC1 [OLANZAPINE] | Not Active | Not Active | – | – | – | Not Active | – | Not Active | Not Active | Not Active | Not Active | – | – | – | –
3 | CCOC(=O)C1=C(C)NC(C)=C(C(=O)OCC)C1c1ccccc1/C=C/C(=O)OC(C)(C)C [LACIDIPINE] | Not Active | Not Active | – | Not Active | Not Active | Not Active | Not Active | – | – | Not Active | Not Active | 6.17 | 2.1 | – | –
4 | CC(O)C(=O)O (configuration not stated) [LACTIC ACID] | Not Active | Not Active | Not Active | Not Active | Not Active | Not Active | – | Not Active | Not Active | Not Active | Not Active | – | – | – | –
5 | CNCCCC12CCC(c3ccccc31)c1ccccc12 [MAPROTILINE] | – | – | – | Not Active | Not Active | Not Active | Not Active | – | – | – | – | – | – | – | –
6 | CCOc1cc(N)c(Cl)cc1C(=O)NCC1CN(Cc2ccc(F)cc2)CCO1 (configuration not stated) [MOSAPRIDE] | Not Active | Not Active | Not Active | Not Active | Not Active | Not Active | Not Active | – | – | Not Active | Not Active | – | – | – | –
7 | O=C1CC[C@@]2(O)[C@H]3Cc4ccc(O)c5c4[C@@]2(CCN3CC2CC2)[C@H]1O5 [NALTREXONE] | Not Active | Not Active | Not Active | Not Active | Not Active | – | Not Active | Not Active | Not Active | – | – | – | – | – | –
8 | O=C(c1ccccc1)c1ccc2n1CCC2C(=O)O (configuration not stated) [KETOROLAC] | Not Active | Not Active | Not Active | Not Active | Not Active | Not Active | – | Not Active | Not Active | Not Active | Not Active | – | – | – | –
9 | Oc1ccc(/C=C/c2cc(O)cc(O)c2)cc1 [RESVERATROL] | Not Active | Not Active | Not Active | Not Active | Not Active | – | – | – | – | Not Active | Not Active | – | – | – | –
10 | CN1C(=O)OC(C)(C)C1=O [TRIMETHADIONE] | Not Active | Not Active | Not Active | Not Active | Not Active | Not Active | Not Active | – | – | Not Active | Not Active | – | – | – | –
11 | CN(C)CCC=C1c2ccccc2COc2ccccc21 [DOXEPIN] | Not Active | Not Active | – | Not Active | Not Active | Not Active | – | Not Active | Not Active | Not Active | Not Active | – | – | – | –
12 | COC(=O)Nc1nc2ccc(C(=O)c3ccccc3)cc2[nH]1 [MEBENDAZOLE] | Not Active | Not Active | Not Active | Not Active | Not Active | Not Active | – | Not Active | Not Active | Not Active | Not Active | – | – | – | –
13 | O=[As][O-].[Na+] [SODIUM ARSENITE] | Not Active | Not Active | Not Active | Not Active | Not Active | – | Not Active | Not Active | Not Active | Not Active | Not Active | – | – | – | –
14 | O=C(OC[C@H]1O[C@@H](OC(=O)c2cc(O)c(O)c(OC(=O)c3cc(O)c(O)c(O)c3)c2)[C@H](OC(=O)c2cc(O)c(O)c(OC(=O)c3cc(O)c(O)c(O)c3)c2)[C@@H](OC(=O)c2cc(O)c(O)c(OC(=O)c3cc(O)c(O)c(O)c3)c2)[C@@H]1OC(=O)c1cc(O)c(O)c(OC(=O)c2cc(O)c(O)c(O)c2)c1)c1cc(O)c(O)c(OC(=O)c2cc(O)c(O)c(O)c2)c1 [TANNIC ACID] | Not Active | Not Active | Not Active | Not Active | Not Active | Not Active | – | – | – | Not Active | Not Active | – | – | – | –
15 | LEAD(IV) ACETATE | Not Active | Not Active | Not Active | Not Active | Not Active | – | Not Active | Not Active | Not Active | Not Active | Not Active | – | – | Not Active | Not Active
16 | CO[C@@H]1[C@@H](OC)[C@H](C)[C@@](O)(CC(=O)O)O[C@H]1[C@H](C)[C@H]1O[C@@]2(CC[C@@](C)([C@H]3CC[C@@](C)([C@@H]4O[C@@H]([C@H]5O[C@](C)(O)[C@H](C)C[C@@H]5C)C[C@@H]4O[C@@H]4C[C@H](OC)[C@@H](OC)[C@H](C)O4)O3)O2)C[C@H](O)[C@H]1C.N [MADURAMICIN] | Not Active | Not Active | Not Active | Not Active | Not Active | Not Active | – | Not Active | Not Active | Not Active | Not Active | – | – | – | –
17 | C[N+]1(C)[C@@H]2C[C@@H](OC(=O)[C@H](CO)c3ccccc3)C[C@H]1[C@@H]1O[C@@H]12.[Br-] [METHSCOPOLAMINE BROMIDE] | Not Active | Not Active | Not Active | Not Active | Not Active | – | – | – | – | Not Active | Not Active | – | – | – | –
18 | Cc1nnc(NS(=O)(=O)c2ccc(N)cc2)s1 [SULFAMETHIZOLE] | Not Active | Not Active | Not Active | Not Active | Not Active | Not Active | – | Not Active | Not Active | Not Active | Not Active | – | – | – | –
19 | Cc1ccc(S(=O)(=O)NC(=O)NN2CCCCCC2)cc1 [TOLAZAMIDE] | – | – | Not Active | Not Active | Not Active | Not Active | Not Active | – | – | – | – | – | – | – | –
20 | CCC(C)(C)C(=O)O[C@H]1C[C@@H](C)C=C2C=C[C@H](C)[C@H](CC[C@@H]3C[C@@H](O)CC(=O)O3)[C@H]21 [SIMVASTATIN] | – | – | Not Active | – | – | Not Active | Not Active | – | – | – | – | – | – | – | –
21 | Cc1ccnc(NS(=O)(=O)c2ccc(N)cc2)n1 [SULFAMERAZINE] | Not Active | Not Active | Not Active | Not Active | Not Active | Not Active | – | Not Active | Not Active | Not Active | Not Active | – | – | – | –
22 | OC[C@@H](O)[C@@H](O)[C@H](O)[C@H](O)CO [MANNITOL] | Not Active | Not Active | Not Active | Not Active | Not Active | – | – | Not Active | Not Active | Not Active | Not Active | – | – | – | –
23 | CCN(CC)N=O [N-NITROSODIETHYLAMINE] | Not Active | Not Active | Not Active | Not Active | Not Active | – | – | Not Active | Not Active | Not Active | Not Active | – | – | – | –
24 | CC(=O)O[C@]1(C(C)=O)CC[C@H]2[C@@H]3C[C@H](C)C4=CC(=O)CC[C@]4(C)[C@H]3CC[C@@]21C [MEDROXYPROGESTERONE ACETATE] | Not Active | Not Active | Not Active | Not Active | Not Active | Not Active | – | Not Active | Not Active | Not Active | Not Active | – | – | – | –
25 | CCN1CCCC1CNC(=O)c1cc(S(N)(=O)=O)ccc1OC (configuration not stated) [SULPIRIDE] | Not Active | Not Active | – | Not Active | Not Active | Not Active | Not Active | Not Active | Not Active | Not Active | Not Active | – | – | – | –
26 | CN1C[C@H](CNC(=O)OCc2ccccc2)C[C@@H]2c3cccc4c3c(cn4C)C[C@H]21 [METERGOLINE] | Not Active | Not Active | – | Not Active | Not Active | Not Active | Not Active | Not Active | Not Active | – | – | – | – | – | –
27 | CC(Cl)(Cl)Cl [TRICHLOROETHANE] | Not Active | Not Active | Not Active | Not Active | Not Active | – | – | Not Active | Not Active | Not Active | Not Active | – | – | – | –
28 | CC1=C(/C=C/C(C)=C/C=C/C(C)=C/C(=O)O)C(C)(C)CCC1 [TRETINOIN] | Not Active | Not Active | Not Active | – | – | Not Active | – | Not Active | Not Active | Not Active | Not Active | – | – | – | –
29 | C1CCN2C[C@@H]3C[C@@H](CN4CCCC[C@@H]34)[C@H]2C1 [SPARTEINE] | – | – | Not Active | Not Active | Not Active | – | Not Active | – | – | – | – | – | – | – | –
